Structures can show the parent of a compound that is named as a salt. Bridge positions count the residues as written; N and C are the ends. Ends that are not written are not given here.
Assays:
[1] = target: Opiate δ receptor (Human) (Homo sapiens, UniProt P41143); assay: [3H]-Naltrindole binding assay; details: Human recombinant
[2] = target: Adenosine A1 receptor (Human) (Homo sapiens, UniProt P30542); assay: [3H]8-Cyclopentyl-1,3-dipropylxanthine; type: binding; details: Human recombinant
[3] = system: Ca Channel (Type L, Dihydropyridine); assay: [3H]-PN200-110 binding assay; details: Rat cerebral cortex
[4] = target: Serotonin transporter (Human) (Homo sapiens, UniProt P31645); assay: [3H]-Imipramine hydrochloride binding assay; details: Human recombinant
PAF receptor = assay: 1-O-Hexadecyl-[3H]-Platelet Activating Factor; type: binding; details: Rabbit platelet
K Channel SkCa = assay: [125I]-Apamin binding assay; details: Rat whole brain
[5] = target: Dopamine D2 receptor short isoform (Human) (Homo sapiens, UniProt P14416); assay: [3H]-Spiperone binding assay; details: Human recombinant
[6] = target: Neurokinin NK3 receptor (Human) (Homo sapiens, UniProt P29371); assay: [125I]-Neurokinin B; type: binding; details: Human recombinant
Monoamine transporter = assay: [3H]-α-Dihydrotetrabenazine binding assay; details: Rabbit platelet
[7] = target: Glucocorticoid receptor (Human) (Homo sapiens, UniProt P04150); assay: [3H]-Dexamethasone binding assay; details: Human recombinant
[8] = system: Glutamate (NMDA polyamine site); assay: [3H]-Ifenprodil binding assay; details: Rat cerebral cortex
[9] = system: Glutamate receptor (Kainate); assay: [3H]-Kainic Acid binding assay; details: Rat whole brain
α1B-Adrenergic receptor = α1B-Adrenergic receptor (Rattus norvegicus, UniProt P15823); assay: [3H]-Prazosin binding assay; details: Rat liver
α1A-Adrenergic receptor = α1A-Adrenergic receptor (Rattus norvegicus, UniProt P43140); assay: [3H]-Prazosin binding assay; details: Rat submandibular gland
[10] = system: Glutamate receptor (NMDA agonist site); assay: [3H]-CGP-39653 binding assay; details: Rat cerebral cortex
[11] = target: Neurokinin NK1 receptor (Human) (Homo sapiens, UniProt P25103); assay: [125I]-Substance P binding assay; details: Human recombinant
Leukotriene D4 receptor = Leukotriene D4 receptor (Cavia porcellus, UniProt Q2NNR5); assay: [3H]-Leukotriene D4 binding assay; details: Guinea pig lung
[12] = target: Dopamine transporter (Human) (Homo sapiens, UniProt Q01959); assay: [3H]-WIN35,428 binding assay; details: Human recombinant
[13] = system: GABA A receptor (Agonist site); assay: [3H]-Muscimol binding assay; details: Rat cerebellum
[14] = system: Glutamate receptor (NMDA phencycidine site); assay: [3H]-; type: binding; details: Rat cerebral cortex
[15] = system: Ca channel (Type L, Phenylalkylamine); assay: [3H]-; type: binding; details: Rat cerebral cortex
[16] = target: Prostanoid EP2 receptor (Human) (Homo sapiens, UniProt P43116); assay: [3H]-Prostaglandin E2 binding assay; details: Human recombinant
[17] = system: GABA A receptor (Picrotoxin site); assay: [3H]-EBOB binding assay; parameters: species or system Rat
[18] = system: Glycine receptor (Strychnine sensitive); type: binding; details: Rat spinal cord
Leukotriene B4 receptor = assay: [3H]-Leukotriene B4 binding assay; details: Guinea pig lung
[19] = system: Ca channel (Type L, Benzothiazepine); assay: [3H]-; type: binding; details: Rat cerebral cortex
[20] = target: Glutamate receptor (NMDAglycine site) (Rattus norvegicus, UniProt P35439); assay: [3H]-MDL105,519 binding assay; details: Rat cerebral cortex
IP3 receptor = assay: D-[3H]-Inositol-1,4,5-Triphosphate binding assay; details: Rat cerebellum
[21] = system: Bombesin receptor (Non-selective); assay: [125I]-Bombesin binding assay; details: Rat whole brain
[22] = target: Adenosine A3 receptor (Human) (Homo sapiens, UniProt P0DMS8); assay: [125I]-AB-MECA binding assay; details: Human recombinant
[23] = system: Glutamate receptor (AMPA); assay: D,L-alpha-[3H]-Amino-3-Hydroxy-Methylisoxazole-4-Propionic Acid; type: binding; details: Rat cerebral cortex
[24] = system: Imidazoline receptor (Central); assay: [3H]RX 781094; type: binding; details: Rat cerebral cortex
CRF1 receptor (Human) = target: T1, CRF1 receptor (Human) (Homo sapiens, UniProt P34998); assay: [125I]-Corticotropin Releasing Factor; type: binding; details: Human recombinant
T1 sequence (P34998 24-415): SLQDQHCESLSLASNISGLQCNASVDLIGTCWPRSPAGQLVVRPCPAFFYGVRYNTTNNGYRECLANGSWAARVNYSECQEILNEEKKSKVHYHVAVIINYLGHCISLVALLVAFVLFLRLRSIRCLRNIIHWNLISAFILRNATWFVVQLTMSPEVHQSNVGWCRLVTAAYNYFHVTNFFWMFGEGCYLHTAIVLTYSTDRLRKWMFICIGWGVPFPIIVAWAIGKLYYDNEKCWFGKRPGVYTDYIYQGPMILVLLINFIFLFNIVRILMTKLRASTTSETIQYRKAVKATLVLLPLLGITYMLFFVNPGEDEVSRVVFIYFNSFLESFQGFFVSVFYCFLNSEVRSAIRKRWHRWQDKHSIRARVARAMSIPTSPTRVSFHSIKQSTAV

[25] = system: GABA A receptor (Benzodiazepine site); assay: [3H]-Flunitrazepam binding assay; details: Rat whole brain
K Channel KATP = assay: [3H]-Glybenclamide binding assay; details: Rat whole brain
[26] = system: Nicotinic receptor (Human); assay: [3H]-; type: binding; details: Human receptor (Non-recombinant)

Sequence of Prostanoid EP2 receptor (Human) (P43116 whole entry): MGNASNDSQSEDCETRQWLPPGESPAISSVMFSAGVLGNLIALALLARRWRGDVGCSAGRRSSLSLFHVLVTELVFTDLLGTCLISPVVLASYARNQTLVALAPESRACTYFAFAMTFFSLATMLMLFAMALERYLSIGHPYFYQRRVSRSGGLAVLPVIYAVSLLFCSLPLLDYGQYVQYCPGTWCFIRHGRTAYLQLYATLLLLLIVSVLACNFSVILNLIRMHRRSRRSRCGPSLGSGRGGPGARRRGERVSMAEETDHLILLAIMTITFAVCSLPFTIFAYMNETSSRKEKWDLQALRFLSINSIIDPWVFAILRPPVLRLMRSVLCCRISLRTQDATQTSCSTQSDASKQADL
Sequence of Serotonin transporter (Human) (P31645 whole entry): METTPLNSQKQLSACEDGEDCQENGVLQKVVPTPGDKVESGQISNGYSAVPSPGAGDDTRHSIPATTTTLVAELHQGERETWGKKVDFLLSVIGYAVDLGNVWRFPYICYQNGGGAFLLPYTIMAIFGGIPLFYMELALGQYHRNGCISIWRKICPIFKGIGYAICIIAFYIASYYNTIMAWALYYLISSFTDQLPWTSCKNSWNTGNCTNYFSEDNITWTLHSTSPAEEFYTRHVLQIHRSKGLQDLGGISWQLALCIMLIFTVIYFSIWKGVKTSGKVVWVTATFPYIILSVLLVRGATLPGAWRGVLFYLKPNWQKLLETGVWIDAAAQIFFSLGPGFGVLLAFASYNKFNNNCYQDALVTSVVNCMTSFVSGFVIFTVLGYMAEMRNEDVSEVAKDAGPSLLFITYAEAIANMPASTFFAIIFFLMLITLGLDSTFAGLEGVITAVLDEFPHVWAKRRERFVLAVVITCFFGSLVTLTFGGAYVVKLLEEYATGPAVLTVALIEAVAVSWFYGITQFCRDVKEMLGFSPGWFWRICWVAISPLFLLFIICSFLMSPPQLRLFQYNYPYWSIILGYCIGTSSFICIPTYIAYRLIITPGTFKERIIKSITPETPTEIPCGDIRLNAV
Sequence of Glucocorticoid receptor (Human) (P04150 whole entry): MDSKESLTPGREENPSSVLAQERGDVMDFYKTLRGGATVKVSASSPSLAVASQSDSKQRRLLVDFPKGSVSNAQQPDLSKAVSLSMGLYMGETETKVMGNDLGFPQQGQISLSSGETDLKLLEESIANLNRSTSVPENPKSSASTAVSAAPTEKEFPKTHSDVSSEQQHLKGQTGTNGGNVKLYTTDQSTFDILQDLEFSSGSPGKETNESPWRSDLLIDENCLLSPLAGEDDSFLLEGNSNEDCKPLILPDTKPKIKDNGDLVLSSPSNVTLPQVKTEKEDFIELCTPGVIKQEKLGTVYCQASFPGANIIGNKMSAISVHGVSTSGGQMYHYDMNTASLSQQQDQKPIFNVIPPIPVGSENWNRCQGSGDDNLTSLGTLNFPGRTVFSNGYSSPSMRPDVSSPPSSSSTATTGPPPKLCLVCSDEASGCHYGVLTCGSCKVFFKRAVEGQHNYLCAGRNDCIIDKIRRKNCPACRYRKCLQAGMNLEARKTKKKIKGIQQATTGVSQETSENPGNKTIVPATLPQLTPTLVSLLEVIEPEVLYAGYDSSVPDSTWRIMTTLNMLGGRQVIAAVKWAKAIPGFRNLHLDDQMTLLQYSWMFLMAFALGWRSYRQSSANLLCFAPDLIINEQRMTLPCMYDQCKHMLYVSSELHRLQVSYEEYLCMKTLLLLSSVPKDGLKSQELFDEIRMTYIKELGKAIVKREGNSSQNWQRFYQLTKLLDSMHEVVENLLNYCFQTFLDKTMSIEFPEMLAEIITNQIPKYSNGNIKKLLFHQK
Sequence of α1A-Adrenergic receptor (P43140 whole entry): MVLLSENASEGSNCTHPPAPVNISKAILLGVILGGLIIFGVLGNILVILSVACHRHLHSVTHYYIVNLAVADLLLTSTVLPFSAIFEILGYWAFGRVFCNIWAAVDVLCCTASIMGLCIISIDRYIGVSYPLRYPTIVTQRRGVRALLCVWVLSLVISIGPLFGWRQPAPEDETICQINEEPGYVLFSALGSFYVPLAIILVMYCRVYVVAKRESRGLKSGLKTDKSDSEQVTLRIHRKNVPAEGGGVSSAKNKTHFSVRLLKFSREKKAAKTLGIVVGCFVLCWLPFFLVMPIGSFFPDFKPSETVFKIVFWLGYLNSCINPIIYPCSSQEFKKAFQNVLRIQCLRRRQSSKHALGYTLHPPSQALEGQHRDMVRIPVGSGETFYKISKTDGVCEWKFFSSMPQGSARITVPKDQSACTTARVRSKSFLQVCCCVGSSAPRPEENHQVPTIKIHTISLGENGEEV
Sequence of Neurokinin NK3 receptor (Human) (P29371 whole entry): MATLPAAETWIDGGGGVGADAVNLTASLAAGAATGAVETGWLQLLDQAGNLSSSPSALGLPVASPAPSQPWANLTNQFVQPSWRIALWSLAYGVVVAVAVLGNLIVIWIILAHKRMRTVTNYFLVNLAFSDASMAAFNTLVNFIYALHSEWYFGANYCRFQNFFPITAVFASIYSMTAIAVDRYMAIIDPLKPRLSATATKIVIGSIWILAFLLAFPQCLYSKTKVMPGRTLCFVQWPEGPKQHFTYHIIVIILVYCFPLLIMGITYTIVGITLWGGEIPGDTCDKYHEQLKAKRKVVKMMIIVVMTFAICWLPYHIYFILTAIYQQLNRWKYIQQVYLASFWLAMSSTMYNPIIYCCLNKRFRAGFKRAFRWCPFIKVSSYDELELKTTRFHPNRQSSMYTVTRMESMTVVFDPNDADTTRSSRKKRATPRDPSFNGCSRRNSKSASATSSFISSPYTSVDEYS
Sequence of Leukotriene D4 receptor (Q2NNR5 whole entry): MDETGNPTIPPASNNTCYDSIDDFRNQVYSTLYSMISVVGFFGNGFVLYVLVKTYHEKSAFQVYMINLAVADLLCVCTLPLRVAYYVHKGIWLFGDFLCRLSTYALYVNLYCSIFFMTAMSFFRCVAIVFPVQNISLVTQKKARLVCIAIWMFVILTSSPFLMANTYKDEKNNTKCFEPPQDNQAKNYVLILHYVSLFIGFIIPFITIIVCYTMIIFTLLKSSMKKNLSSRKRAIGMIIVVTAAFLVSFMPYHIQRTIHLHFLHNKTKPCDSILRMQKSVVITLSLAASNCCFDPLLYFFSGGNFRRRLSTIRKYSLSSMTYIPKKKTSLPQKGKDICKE
Sequence of α1B-Adrenergic receptor (P15823 whole entry): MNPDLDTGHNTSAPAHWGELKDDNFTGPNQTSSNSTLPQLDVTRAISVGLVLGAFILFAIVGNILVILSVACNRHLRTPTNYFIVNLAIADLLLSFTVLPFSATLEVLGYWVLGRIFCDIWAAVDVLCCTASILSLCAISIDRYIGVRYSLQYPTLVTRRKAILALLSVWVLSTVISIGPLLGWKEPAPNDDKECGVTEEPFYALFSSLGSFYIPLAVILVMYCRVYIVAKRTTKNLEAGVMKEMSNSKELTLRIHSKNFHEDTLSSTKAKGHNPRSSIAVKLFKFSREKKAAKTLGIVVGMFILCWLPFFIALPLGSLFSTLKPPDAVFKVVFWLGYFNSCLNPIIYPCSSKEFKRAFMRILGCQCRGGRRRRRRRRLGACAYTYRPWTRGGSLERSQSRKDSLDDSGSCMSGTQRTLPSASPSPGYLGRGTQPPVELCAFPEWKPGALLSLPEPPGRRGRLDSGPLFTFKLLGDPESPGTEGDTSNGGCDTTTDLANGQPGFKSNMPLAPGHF
Sequence of Dopamine transporter (Human) (Q01959 whole entry): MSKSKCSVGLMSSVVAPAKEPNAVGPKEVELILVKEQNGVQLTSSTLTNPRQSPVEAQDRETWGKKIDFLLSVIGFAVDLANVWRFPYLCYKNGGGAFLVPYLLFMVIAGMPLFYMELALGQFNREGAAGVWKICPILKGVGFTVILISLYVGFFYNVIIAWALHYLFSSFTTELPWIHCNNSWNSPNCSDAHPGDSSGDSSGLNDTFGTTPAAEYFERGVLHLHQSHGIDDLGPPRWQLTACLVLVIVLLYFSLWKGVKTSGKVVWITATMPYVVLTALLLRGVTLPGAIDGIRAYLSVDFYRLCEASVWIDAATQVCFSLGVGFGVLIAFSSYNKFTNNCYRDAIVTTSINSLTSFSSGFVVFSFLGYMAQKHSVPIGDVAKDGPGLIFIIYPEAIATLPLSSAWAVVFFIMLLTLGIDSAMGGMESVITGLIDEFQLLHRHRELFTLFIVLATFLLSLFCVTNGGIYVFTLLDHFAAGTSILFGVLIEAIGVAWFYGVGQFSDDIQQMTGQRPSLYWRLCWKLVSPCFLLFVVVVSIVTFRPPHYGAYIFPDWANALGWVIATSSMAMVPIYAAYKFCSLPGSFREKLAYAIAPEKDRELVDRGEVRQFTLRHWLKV
Sequence of Adenosine A3 receptor (Human) (P0DMS8 whole entry): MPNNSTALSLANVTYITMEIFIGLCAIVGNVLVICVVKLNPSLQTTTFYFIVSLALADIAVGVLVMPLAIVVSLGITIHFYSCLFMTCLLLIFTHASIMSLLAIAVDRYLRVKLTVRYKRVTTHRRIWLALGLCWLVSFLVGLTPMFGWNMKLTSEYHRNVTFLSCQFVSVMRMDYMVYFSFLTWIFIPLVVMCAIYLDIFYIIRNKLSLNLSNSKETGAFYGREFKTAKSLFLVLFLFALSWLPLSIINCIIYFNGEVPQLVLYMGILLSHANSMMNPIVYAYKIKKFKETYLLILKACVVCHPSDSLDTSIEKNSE
Sequence of Dopamine D2 receptor short isoform (Human) (P14416 1-414 isoform P14416-2): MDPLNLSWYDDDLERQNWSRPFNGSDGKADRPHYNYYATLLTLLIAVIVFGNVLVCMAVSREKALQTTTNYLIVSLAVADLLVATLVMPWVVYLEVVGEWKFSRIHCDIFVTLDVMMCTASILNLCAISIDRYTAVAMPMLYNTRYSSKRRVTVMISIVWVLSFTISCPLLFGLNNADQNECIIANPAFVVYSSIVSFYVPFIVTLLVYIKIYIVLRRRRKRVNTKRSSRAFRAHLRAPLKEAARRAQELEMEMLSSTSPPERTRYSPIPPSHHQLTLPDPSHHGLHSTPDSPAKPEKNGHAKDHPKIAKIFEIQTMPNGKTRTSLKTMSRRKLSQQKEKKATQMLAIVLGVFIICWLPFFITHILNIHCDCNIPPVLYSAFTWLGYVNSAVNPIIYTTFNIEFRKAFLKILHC

CS(=O)(=O)O.Oc1ccc2c3c1O[C@H]1c4oc5ccccc5c4C[C@@]4(O)[C@@H](C2)N(CC2CC2)CC[C@]314 [Naltriben methanesulfonate hydrate]
Inhibition by a positive substance (%) [1]: 100%

CCCn1c(=O)c2[nH]c(C3CCCC3)nc2n(CCC)c1=O [8-Cyclopentyl-1,3-dipropylxanthine]
Inhibition by a positive substance (%) [2]: 96.61%

CCOC(=O)C1=C(C)NC(C)=C(C(=O)OC)C1c1cccc([N+](=O)[O-])c1 (stereo not drawn) [Nitrendipine]
Inhibition by a positive substance (%) [3]: 100%

CN(C)CCCN1c2ccccc2CCc2ccccc21 [Imipramine hydrochloride]
Inhibition by a positive substance (%) [4]: 96.87%

CCCCCCCCCCCCCCCCOC[C@@H](O)COP(=O)([O-])OCC[N+](C)(C)C [1-O-Palmityl-sn-glycero-3-phosphocholine]
Inhibition by a positive substance (%) (PAF receptor): 100%

Apamin (CNCKAPETALCARRCQQH-NH2; disulfide 1-11, 3-15; ends not checked; UniProt P01500 28-45, looked up)
Inhibition by a positive substance (%) (K Channel SkCa): 100%

CC(C)(C)[C@]1(O)CCN2C[C@H]3c4ccccc4CCc4cccc(c43)[C@@H]2C1 [(+)-Butaclamol hydrochloride]
Inhibition by a positive substance (%) [5]: 94.16%

Succinyl-[Asp 6, N–Me-Phe 8]-Substance P Fragment 6–11
Inhibition by a positive substance (%) [6]: 100%

O=C(O)C(O)C(O)C(=O)O.O=C(c1ccc(F)cc1)C1CCN(CCn2c(=O)[nH]c3ccccc3c2=O)CC1 [Ketanserin tartrate salt]
Inhibition by a positive substance (%) (Monoamine transporter): 100%

C[C@@H]1C[C@H]2[C@@H]3CCC4=CC(=O)C=C[C@]4(C)[C@@]3(F)[C@@H](O)C[C@]2(C)[C@@]1(O)C(=O)CO [Dexamethasone]
Inhibition by a positive substance (%) [7]: 99.36%

CC(C(O)c1ccc(O)cc1)N1CCC(Cc2ccccc2)CC1.CC(C(O)c1ccc(O)cc1)N1CCC(Cc2ccccc2)CC1.O=C(O)C(O)C(O)C(=O)O (stereo not drawn) [Ifenprodil tartrate salt]
Inhibition by a positive substance (%) [8]: 99.68%

C=C(C)[C@H]1CN[C@H](C(=O)O)[C@H]1CC(=O)O.O [Kainic acid monohydrate]
Inhibition by a positive substance (%) [9]: 100%

COc1cc2nc(N3CCN(C(=O)c4ccco4)CC3)nc(N)c2cc1OC [Prazosin hydrochloride]
Inhibition by a positive substance (%) (α1B-Adrenergic receptor): 100% | Inhibition by a positive substance (%) (α1A-Adrenergic receptor): 100%

Cl.N[C@@H](CCC(=O)O)C(=O)O [L-Glutamic acid hydrochloride]
Inhibition by a positive substance (%) [10]: 100%

Ic1ccccc1CN[C@@H]1C2CCN(CC2)[C@@H]1C(c1ccccc1)c1ccccc1 [L-703,606 oxalate salt hydrate]
Inhibition by a positive substance (%) [11]: 99.87%

CCCCC/C=C\C\C=C/C=C/C=C/[C@@H](SC[C@H](N)C(=O)NCC(=O)O)[C@@H](O)CCCC(=O)O [Leukotriene D4]
Inhibition by a positive substance (%) (Leukotriene D4 receptor): 96.63%

Fc1ccc(C(OCCN2CCN(CCCc3ccccc3)CC2)c2ccc(F)cc2)cc1 [GBR12909 dihydrochloride]
Inhibition by a positive control substance (%) [12]: 99.41%

NCc1cc(=O)[nH]o1 [Muscimol]
Inhibition by a positive substance (%) [13]: 99.04%

(+)-MK-801 hydrogen maleate
Inhibition by a positive substance (%) [14]: 100%

COc1ccc(CCN(C)CCCC(C#N)(c2cc(OC)c(OC)c(OC)c2)C(C)C)cc1OC.Cl (racemic) [(±)-Methoxyverapamil hydrochloride]
Inhibition by a positive control substance (%) [15]: 100%

CCCCC[C@H](O)/C=C/[C@H]1[C@H](O)CC(=O)[C@@H]1C/C=C\CCCC(=O)O [Prostaglandin E2]
Inhibition by a positive substance (%) [16]: 100%

Picrotoxin
Inhibition by a positive control substance (%) ([17]; Rat cerebral cortex): 94.33% | IC50 ([17]; read-out: IC50 for inhibition of the [3H]-EBOB binding, rat cerebral cortex preparation, 7 concentrations, duplicate): 602 nM | Ki ([17]; read-out: Ki (mol/L), inhibition of the binding of [3H]-EBOB, GABAA (Picrotoxin site), Ki=IC50/(1+[L/Kd])): 313 nM

O=C1C[C@@H]2OCC=C3CN4CC[C@]56c7ccccc7N1[C@H]5[C@H]2[C@H]3C[C@H]46 [Strychnine]
Inhibition by a positive substance (%) [18]: 98.79%

C#Cc1ccc(C23OCC(CCC)(CO2)CO3)cc1 [[^3H]-EBOB, [^3H]-ethynylbicycloorthobenzoate]
Kd ([17]; read-out: Kd (nmol/L), binding of the radio-labeled ligand, 7 concentrations, GABAA (Picrotoxin site)): 4.18 nmol/L

CCCCC/C=C\C[C@@H](O)/C=C/C=C/C=C\[C@@H](O)CCCC(=O)O [Leukotriene B4]
Inhibition by a positive control substance (%) (Leukotriene B4 receptor): 92.71%

COc1ccc([C@@H]2Sc3ccccc3N(CCN(C)C)C(=O)[C@@H]2OC(C)=O)cc1.Cl (relative stereo) [(+)-cis-Diltiazem hydrochloride]
Inhibition by a positive substance (%) [19]: 96.98%

O=C(O)/C(=C/c1c(C(=O)O)[nH]c2cc(Cl)cc(Cl)c12)c1ccccc1 [MDL105,519]
Inhibition by a positive substance (%) [20]: 100%

O=P([O-])([O-])OC1C(O)C(O)C(OP(=O)([O-])[O-])C(OP(=O)([O-])[O-])C1O.[K+].[K+].[K+].[K+].[K+].[K+] [D-myo-Inositol 1,4,5-trisphosphate potassium salt]
Inhibition by a positive substance (%) (IP3 receptor): 100%

Bombesin acetate hydrate
Inhibition by a positive control substance (%) [21]: 98.81%

CNC(=O)[C@H]1O[C@@H](n2cnc3c(NCc4cccc(I)c4)ncnc32)[C@H](O)[C@@H]1O [IB-MECA]
Inhibition by a positive substance (%) [22]: 99.41%

Cc1o[nH]c(=O)c1C[C@H](N)C(=O)O [(S)-AMPA]
Inhibition by a positive substance (%) [23]: 100%

CC(=O)O.N=C(N)N/N=C/c1c(Cl)cccc1Cl [Guanabenz acetate salt]
Inhibition by a positive substance (%) [24]: 100%

Urocortin human (DNPSLSIDLTFHLLRTLLELARTQSQRERAEQNRIIFDSV; ends and bridges not checked; UniProt P55089 83-122, looked up)
Inhibition by a positive substance (%) (CRF1 receptor (Human)): 100%

CN1C(=O)CN=C(c2ccccc2)c2cc(Cl)ccc21 [Diazepam]
Inhibition by a positive substance (%) [25]: 100%

COc1ccc(Cl)cc1C(=O)NCCc1ccc(S(=O)(=O)NC(=O)NC2CCCCC2)cc1 [Glibenclamide]
Inhibition by a positive substance (%) (K Channel KATP): 100%

Cl.Cl.Clc1ccc(C2CC3CCC2N3)cn1.O (racemic) [(±)-Epibatidine dihydrochloride hydrate]
Inhibition by a positive substance (%) [26]: 100%

From paper PMC8237303 (Heliyon, 2021)
